Laboratory results from BindingDB's records for doi:10.1016/j.bmcl.2010.11.060 (Msd, 2010).

Test: Inhibition of MCP1-mediated human THP cell migration

IC50 [µM] | SMILES
6.92 | O=c1[nH]ccc2c(S(=O)(=O)N3CCCNCC3)cccc12
2.63 | C[C@@H](N)[C@H]1CC[C@H](C(=O)Nc2ccncc2)CC1 [4-[(1R)-1-aminoethyl]-N-(pyridin-4-yl)cyclohexane-1-carboxamide]
6.92 | O=S(=O)(c1cccc2cnccc12)N1CCCNCC1 [AT877]

SMILES | IC50 [µM]
Nc1nccc2cc(CNCCc3ccccc3)ccc12 | > 31.6
